Consider 10 compounds from ChEMBL document CHEMBL1146899, “Redefining the structure-activity relationships of 2,6-methano-3-benzazocines. 4. Opioid receptor binding properties of 8-[N-(4'-phenyl)-phenethyl)carboxamido] analogues of cyclazocine and ethylketocycalzocine” (J Med Chem, 2006).

Activity calls are given as the source filed them. The calls are words filed in the database; no cut-off is given here.

Assay [1] concerns the target Delta-type opioid receptor (Homo sapiens, UniProt P41143). The assay can be described thus: Displacement of [3H]naltrindole from human delta opioid receptor expressed in CHO cells. The format is cell-based.
The target in assay [2] is Mu-type opioid receptor (Homo sapiens, UniProt P35372). The assay can be described thus: Displacement of [3H]DAMGO from human mu opioid receptor expressed in CHO cells. The class given is cell-based. On the technique in general: In a radioligand displacement assay an active substance lowers the binding of a labelled ligand.
The target in assay [3] is Kappa-type opioid receptor (Homo sapiens, UniProt P41145). Nature of the assay: biochemical. The format is cell-based, CHO.
Description: Displacement of [3H]U-69593 from human kappa opioid receptor expressed in CHO cells
Assay [4] deals with Mus musculus. The assay can be described thus: Antinociceptive activity in mouse at 1 mg/kg, ip. The format is functional, organism-based. Set-up: dose 1 mg/kg.

Chain of Delta-type opioid receptor (P41143 whole entry): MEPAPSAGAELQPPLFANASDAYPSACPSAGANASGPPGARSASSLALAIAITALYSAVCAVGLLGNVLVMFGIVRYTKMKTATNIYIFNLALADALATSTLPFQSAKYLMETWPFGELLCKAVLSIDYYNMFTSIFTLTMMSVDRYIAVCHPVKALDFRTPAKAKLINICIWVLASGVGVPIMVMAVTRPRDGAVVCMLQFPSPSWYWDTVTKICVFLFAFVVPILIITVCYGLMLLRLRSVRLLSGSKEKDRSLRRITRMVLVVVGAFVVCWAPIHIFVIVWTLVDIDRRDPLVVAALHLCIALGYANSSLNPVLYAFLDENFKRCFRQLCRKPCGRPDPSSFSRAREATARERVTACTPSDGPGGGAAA
Chain of Kappa-type opioid receptor (P41145 whole entry): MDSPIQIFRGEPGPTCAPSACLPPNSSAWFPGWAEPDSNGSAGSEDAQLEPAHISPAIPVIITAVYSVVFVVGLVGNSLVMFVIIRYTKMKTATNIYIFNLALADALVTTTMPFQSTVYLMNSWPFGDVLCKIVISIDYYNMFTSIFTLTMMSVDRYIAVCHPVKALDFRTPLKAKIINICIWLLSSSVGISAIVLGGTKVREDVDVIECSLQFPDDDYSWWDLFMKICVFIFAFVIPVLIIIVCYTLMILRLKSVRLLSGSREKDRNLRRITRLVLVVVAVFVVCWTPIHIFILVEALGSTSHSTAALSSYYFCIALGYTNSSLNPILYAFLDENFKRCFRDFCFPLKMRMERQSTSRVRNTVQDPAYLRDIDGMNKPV
Chain of Mu-type opioid receptor (P35372 whole entry): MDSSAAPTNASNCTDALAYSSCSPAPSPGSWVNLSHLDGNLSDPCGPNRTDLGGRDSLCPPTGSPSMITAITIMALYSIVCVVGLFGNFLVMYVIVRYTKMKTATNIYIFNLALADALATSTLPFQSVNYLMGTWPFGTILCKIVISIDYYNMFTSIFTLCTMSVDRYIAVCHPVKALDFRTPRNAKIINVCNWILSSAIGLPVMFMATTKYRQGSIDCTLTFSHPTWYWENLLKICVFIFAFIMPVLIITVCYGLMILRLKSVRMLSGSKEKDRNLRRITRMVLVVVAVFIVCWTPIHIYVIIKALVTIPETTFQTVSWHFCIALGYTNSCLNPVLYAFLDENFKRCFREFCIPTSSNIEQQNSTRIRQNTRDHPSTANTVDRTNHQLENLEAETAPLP

Turning to `C[C@H]1C2Cc3ccc(C(=O)NCc4ccccc4)cc3[C@@]1(C)CCN2CC1CC1` (mixture of isomers), the Ki in assay [1] amounted to 210 nM; in assay [2] it was 27 nM; in assay [3], 36 nM.

For `C[C@H]1C2Cc3ccc(C(N)=O)cc3[C@@]1(C)CCN2CC1CC1`, in assay [1], the affinity corresponds to a Ki of 5.2 nM. In assay [4], the outcome was Active.

As for `C[C@H]1C2Cc3ccc(C(=O)NCCc4ccccc4)cc3[C@@]1(C)CCN2CC1CC1` (mixture of isomers), the Ki in assay [1] was 59 nM; in assay [2], 3.5 nM; in assay [3] it was 1.7 nM.

With `CC[C@@]12CCN(CC3CC3)C(C(=O)c3ccc(C(=O)NCCc4ccc(-c5ccccc5)cc4)cc31)[C@@H]2C` (mixture of isomers), the Ki in assay [1] stood at 3.9 nM; in assay [2], 3.1 nM; in assay [3] it was 1.3 nM.

In the case of `C[C@H]1C2Cc3ccc(C(=O)N(C)CCc4ccc(-c5ccccc5)cc4)cc3[C@@]1(C)CCN2CC1CC1` (racemic), the inhibitory constant (Ki) in assay [1] amounted to 12 nM; in assay [2], 6.7 nM; in assay [3] it was 11 nM.

On to `C[C@H]1C2Cc3ccc(C(=O)Nc4ccccc4)cc3[C@@]1(C)CCN2CC1CC1`, for which the Ki in assay [1] amounted to 2100 nM; in assay [2], 840 nM; in assay [3] it was 270 nM.

`C[C@H]1C2Cc3ccc(C(=O)NCc4ccc(-c5ccccc5)cc4)cc3[C@@]1(C)CCN2CC1CC1` (mixture of isomers): the Ki in assay [1] amounted to 170 nM; in assay [2] it was 11 nM; in assay [3], 26 nM.

For `C[C@H]1C2Cc3ccc(C(=O)Nc4ccc(-c5ccccc5)cc4)cc3[C@@]1(C)CCN2CC1CC1` (mixture of isomers), the Ki was 110 nM in assay [1], 18 nM in assay [2] and 27 nM in assay [3].

On to `C[C@H]1C2Cc3ccc(C(=O)NCCCc4ccccc4)cc3[C@@]1(C)CCN2CC1CC1` (mixture of isomers), for which the Ki in assay [1] was determined as 47 nM; in assay [2] it was 2.5 nM; in assay [3], 3 nM.

In the case of `CC[C@@]12CCN(CC3CC3)C(C(=O)c3ccc(C(N)=O)cc31)[C@@H]2C`, the Ki in assay [1] stood at 23 nM; in assay [2] it was 2.1 nM; in assay [3], 0.47 nM.

As a reminder, the Ki is the dissociation constant of the complex between target and ligand, obtained from inhibition or displacement.
